Experimental data reported in PubChem BioAssay AID248 (DTP/NCI, 2004).
“And” between values parts separate entries of the source, which are not always exact repeats. Equal values may be shown once. Inconclusive results and toxic doses are left out. Rule as the data show it: active = T/C of 150% or more; inactive = T/C below 125%. Peptide text beside a SMILES is read from it. * marks the point of attachment. Trt = c1ccc(C(c2ccccc2)(c2ccccc2)*)cc1; OtBu = CC(C)(C)O*

Tested on: L1210 leukemia ip in BDF1 mice, survival T/C
Test: NCI In Vivo Anticancer Drug Screen. Data for tumor model L1210 Leukemia (intraperitoneal) in B6D2F1 (BDF1) mice
Conditions: endpoint: mean survival time, higher = longer survival
Outline: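 Mice bearing the transplanted tumor received compound or vehicle. Survival of the treated group was divided by that of the vehicle-treated control group to give the ratio.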

[1] = dose: 100.0 mg/kg/injection, schedule: Q04DX003 (ip), vehicle: saline with Tween-80
[2] = dose: 200.0 mg/kg/injection, schedule: Q04DX003 (ip), vehicle: saline with Tween-80
[3] = dose: 100.0 mg/kg/injection, schedule: Q04DX002 (ip), vehicle: Klucel (hydroxypropylcellulose) (HPC)
[4] = dose: 100.0 mg/kg/injection, schedule: Q01DX001 (ip), vehicle: carboxymethylcellulose (CMC)
[5] = dose: 200.0 mg/kg/injection, schedule: Q01DX001 (ip), vehicle: carboxymethylcellulose (CMC)
[6] = dose: 400.0 mg/kg/injection, schedule: Q01DX001 (ip), vehicle: carboxymethylcellulose (CMC)
[7] = dose: 100.0 mg/kg/injection, schedule: Q01DX001 (ip), vehicle: Klucel (hydroxypropylcellulose) (HPC)
[8] = dose: 200.0 mg/kg/injection, schedule: Q01DX001 (ip), vehicle: Klucel (hydroxypropylcellulose) (HPC)
[9] = dose: 400.0 mg/kg/injection, schedule: Q01DX001 (ip), vehicle: Klucel (hydroxypropylcellulose) (HPC)
[10] = dose: 100.0 mg/kg/injection, schedule: Q04DX003 (ip), vehicle: saline
[11] = dose: 200.0 mg/kg/injection, schedule: Q04DX003 (ip), vehicle: saline
[12] = dose: 400.0 mg/kg/injection, schedule: Q04DX003 (ip), vehicle: saline
[13] = dose: 100.0 mg/kg/injection, schedule: Q01DX009 (ip), vehicle: Klucel (hydroxypropylcellulose) (HPC)
[14] = dose: 200.0 mg/kg/injection, schedule: Q01DX009 (ip), vehicle: Klucel (hydroxypropylcellulose) (HPC)
[15] = dose: 100.0 mg/kg/injection, schedule: Q01DX009 (ip), vehicle: saline with Tween-80
[16] = dose: 200.0 mg/kg/injection, schedule: Q01DX009 (ip), vehicle: saline with Tween-80
[17] = dose: 400.0 mg/kg/injection, schedule: Q01DX009 (ip), vehicle: saline with Tween-80
[18] = dose: 400.0 mg/kg/injection, schedule: Q04DX003 (ip), vehicle: saline with Tween-80

Measured: T/C

COC1(c2ccccc2)OC(C(C)(C)C)=NC1(C)C (stereo unspecified)
inactive: [1] 92 % of control | [2] 108 % of control

O=[N+]([O-])c1cc(Br)cc(Br)c1O
inactive: dose: 25.0 mg/kg/injection, schedule: Q04DX002 (ip), vehicle: Klucel (hydroxypropylcellulose) (HPC) 109 % of control | dose: 50.0 mg/kg/injection, schedule: Q04DX002 (ip), vehicle: Klucel (hydroxypropylcellulose) (HPC) 98 % of control | [3] 98 % of control and 91 % of control

COc1ccc(OC)c(/C=C2\SC(=S)N(C3OC(COC(C)=O)C(OC(C)=O)C(OC(C)=O)C3OC(C)=O)C2=O)c1 (stereo unspecified)
inactive: dose: 25.0 mg/kg/injection, schedule: Q01DX005 (ip), vehicle: other 101 % of control | dose: 50.0 mg/kg/injection, schedule: Q01DX005 (ip), vehicle: other 108 % of control | dose: 100.0 mg/kg/injection, schedule: Q01DX005 (ip), vehicle: other 101 % of control | dose: 200.0 mg/kg/injection, schedule: Q01DX005 (ip), vehicle: other 97 % of control | dose: 400.0 mg/kg/injection, schedule: Q01DX005 (ip), vehicle: other 104 % of control

O=C1C(c2ccccc2)=CC(c2ccccc2)=C1c1ccccc1
inactive: dose: 50.0 mg/kg/injection, schedule: Q01DX001 (ip), vehicle: carboxymethylcellulose (CMC) 91 % of control | [4] 91 % of control | [5] 94 % of control | [6] 94 % of control

CC(=O)[O][Hg][C]([Hg][O]C(C)=O)([Hg][O]C(C)=O)[Hg][O]C(C)=O
inactive: [7] 91 % of control | [8] 96 % of control | [9] 89 % of control

N=C1SCC(=O)N1CCN1C(=N)SCC1=O
inactive: [4] 101 % of control | [5] 90 % of control | [6] 97 % of control

CNC(=O)Oc1ccc2ccccc2c1[N+](=O)[O-]
inactive: dose: 75.0 mg/kg/injection, schedule: Q01DX001 (ip), vehicle: other 101 % of control

Cc1ccc(N=Nc2c(C)nn(C(N)=S)c2-c2ccccc2)cc1
inactive: dose: 75.0 mg/kg/injection, schedule: Q01DX001 (ip), vehicle: saline 94 % of control | dose: 150.0 mg/kg/injection, schedule: Q01DX001 (ip), vehicle: saline 90 % of control

O=S(=O)(O)c1ccc(O)c2ncccc12
inactive: [10] 95 % of control | [11] 101 % of control | [12] 101 % of control

CCCCCCCCCc1c(C)[nH]c2ccccc2c1=O
inactive: [13] 94 % of control | [10] 100 % of control | [14] 86 % of control | [11] 104 % of control | dose: 400.0 mg/kg/injection, schedule: Q01DX009 (ip), vehicle: Klucel (hydroxypropylcellulose) (HPC) 86 % of control | [12] 100 % of control

CC(C)(C)OC(=O)CNC(=O)C(Cc1ccccc1)NC(=O)C(N)CSC(c1ccccc1)(c1ccccc1)c1ccccc1 (stereo not drawn) (H-Cys(Trt)-Phe-Gly-OtBu; configuration not given here)
inactive: dose: 264.0 mg/kg/injection, schedule: Q01DX001 (ip), vehicle: carboxymethylcellulose (CMC) 104 % of control | dose: 264.0 mg/kg/injection, schedule: Q01DX001 (ip), vehicle: saline 110 % of control | [6] 107 % of control | dose: 400.0 mg/kg/injection, schedule: Q01DX001 (ip), vehicle: saline 115 % of control

CCc1ccc(NC(=O)Nc2ccccc2OC)cc1
inactive: dose: 100.0 mg/kg/injection, schedule: Q01DX009 (ip), vehicle: gum acacia 97 % of control | dose: 100.0 mg/kg/injection, schedule: Q04DX003 (ip), vehicle: gum acacia 98 % of control | dose: 200.0 mg/kg/injection, schedule: Q01DX009 (ip), vehicle: gum acacia 94 % of control | dose: 200.0 mg/kg/injection, schedule: Q04DX003 (ip), vehicle: gum acacia 92 % of control | dose: 400.0 mg/kg/injection, schedule: Q01DX009 (ip), vehicle: gum acacia 91 % of control | dose: 400.0 mg/kg/injection, schedule: Q04DX003 (ip), vehicle: gum acacia 104 % of control

C=CCNC(=S)Nc1ccc(C)cc1
inactive: dose: 50.0 mg/kg/injection, schedule: Q01DX009 (ip), vehicle: Klucel (hydroxypropylcellulose) (HPC) 95 % of control | [13] 97 % of control | dose: 100.0 mg/kg/injection, schedule: Q04DX003 (ip), vehicle: Klucel (hydroxypropylcellulose) (HPC) 103 % of control | [14] 100 % of control | dose: 200.0 mg/kg/injection, schedule: Q04DX003 (ip), vehicle: Klucel (hydroxypropylcellulose) (HPC) 101 % of control | dose: 400.0 mg/kg/injection, schedule: Q04DX003 (ip), vehicle: Klucel (hydroxypropylcellulose) (HPC) 88 % of control

O=C(Nc1ccccc1Cl)N(C1CCCCC1)C1CCCCC1
inactive: [3] 103 % of control | dose: 200.0 mg/kg/injection, schedule: Q04DX002 (ip), vehicle: Klucel (hydroxypropylcellulose) (HPC) 100 % of control | dose: 400.0 mg/kg/injection, schedule: Q04DX002 (ip), vehicle: Klucel (hydroxypropylcellulose) (HPC) 106 % of control

COc1cc2c(cc1O)C(OC)(OC)CCCC2
inactive: dose: 50.0 mg/kg/injection, schedule: Q01DX009 (ip), vehicle: saline with Tween-80 96 % of control | [15] 96 % of control | [16] 93 % of control

COc1ccc(C)cc1NC(=S)NC(=O)/C=C/c1ccccc1
inactive: dose: 100.0 mg/kg/injection, schedule: Q01DX001 (ip), vehicle: saline with Tween-80 90 % of control | [15] 93 % of control and 100 % of control | dose: 100.0 mg/kg/injection, schedule: Q04DX002 (ip), vehicle: saline with Tween-80 93 % of control and 94 % of control | [1] 91 % of control | dose: 200.0 mg/kg/injection, schedule: Q01DX001 (ip), vehicle: saline with Tween-80 91 % of control | [16] 93 % of control and 88 % of control | dose: 200.0 mg/kg/injection, schedule: Q04DX002 (ip), vehicle: saline with Tween-80 94 % of control and 90 % of control | [2] 93 % of control | dose: 400.0 mg/kg/injection, schedule: Q01DX001 (ip), vehicle: saline with Tween-80 90 % of control | [17] 100 % of control and 103 % of control | dose: 400.0 mg/kg/injection, schedule: Q04DX002 (ip), vehicle: saline with Tween-80 97 % of control and 89 % of control | [18] 91 % of control

O=[N+]([O-])c1ccc(C(=NO)c2ccc([N+](=O)[O-])cc2)cc1
inactive: [7] 103 % of control | [8] 109 % of control | [9] 101 % of control

COc1ccc(C2=CCCCC2)cc1
inactive: [15] 97 % of control | [1] 105 % of control | [16] 91 % of control | [2] 110 % of control | [17] 94 % of control | [18] 103 % of control

CC(C)c1ccc(C(=O)CCCCl)cc1
inactive: [1] 97 % of control | [2] 102 % of control | [18] 92 % of control

O=C(/C=C/c1ccccc1)CC(O)(C(F)(F)F)C(F)(F)F
inactive: dose: 100.0 mg/kg/injection, schedule: Q04DX003 (sc), vehicle: olive oil, sesame oil, peanut oil 113 % of control | dose: 200.0 mg/kg/injection, schedule: Q04DX003 (sc), vehicle: olive oil, sesame oil, peanut oil 113 % of control | dose: 400.0 mg/kg/injection, schedule: Q04DX003 (sc), vehicle: olive oil, sesame oil, peanut oil 108 % of control
